# Experiments:
# [1] = Capture of target molecule from solution by insoluble cross-linked cyclodextrin polymer (batch slurry, supernatant measured after filtration); details: Example 9: 2 mg/mL CBD in 1:1 ethanol:water, 10:1 polymer:CBD
# Experimental: A standard protocol was followed in all Examples with the variances from the standard protocol as described in each Example. The standard protocol included a plurality of steps. A mass of CBD was dissolved in ethanol to form a stock solution. A reference sample of the stock solution was diluted with ethanol to obtain a target CBD or other target molecule concentration for a reference measurement. A reaction sample was taken from the remaining stock solution. A cross-linked polysaccharide was combined with the reaction sample in a ratio relative to the CBD or other target molecule concentration present in the reaction sample (by mass) as specified in Examples. The cross-linked polymer is HDI-linked cyclodextrin prepared with a ratio of 8:1 HDI to cyclodextrin.
# Water is combined with the reaction sample until the reaction sample reaches a target CBD or other target molecule concentration, and a target ethanol to water ratio. The reaction mixture including the water is filtered at a cutoff size of between 75 μm to 4,000 μm aperture size, or exposed to a magnetic field with a neodymium magnet through the wall of a flask, to retrieve the cross-linked polymer bound with CBD or other target molecule concentration. Once retrieved, the cross-linked polymer is flushed with a dissociation solvent for dissolving the target molecule. […]
# [2] = Solubility of CBD in ethanol:water mixtures
smiles,measurement,setting,value
"C=C(C)[C@@H]1CCC(C)=C[C@H]1c1c(O)cc(CCCCC)cc1O [CBD, cannabidiol]",time to capture plateau,[1],about 5 minutes
same,solubility of CBD,"[2]; 40:60 EtOH:H2O, 2 mg/mL CBD",not fully dissolved
same,solubility of CBD,"[2]; 45:56 EtOH:H2O, 2 mg/mL CBD",cloudy
same,solubility of CBD,"[2]; 50:50 EtOH:H2O, EtOH added first then H2O",dissolves
same,solubility of CBD,[2]; Example 13: 6 mg/mL in 1:1 EtOH:H2O with sonication and heating,did not dissolve
same,percent of the CBD not in solution,[2]; Example 17: CBD in 3:7 EtOH:H2O,Ten

# Reference: patent US12678472B2, “Method for selective recovery of hydrophobic compounds” (priority 2019, dated 2026)
